# Results from patent publication US20260234115A1, “LIPID COMPOUNDS, COMPOSITIONS, AND USES THEREOF” (Liberate Bio, Inc., priority 2023, published 2026).
# Marks after values point to notes of the source that are not given here.
# Key:
# [1] = Dynamic light scattering: LNP particle size and PDI; format: physicochemical; details: for PDI N/P:3 / Size (nm) N/P:3 / PDI N/P:6 / Size (nm) N/P:6: LNP
# In short: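 The LNPs were made by microfluidic mixing of the lipids in ethanol with mRNA in pH 4.0 citrate, then dialyzed into PBS pH 7.4. They were diluted in PBS pH 7.4, and particle size and PDI were measured by dynamic light scattering.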
# [2] = Plate-based fluorescence (RiboGreen) assay: nucleic acid cargo content and encapsulation efficiency of LNPs; format: physicochemical; details: for EE (%) N/P:3 / EE (%) N/P:6: LNP
# In short: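 LNPs made by microfluidic mixing of ethanolic lipids with mRNA in pH 4.0 citrate, dialyzed into PBS pH 7.4. Cargo quantified by RiboGreen fluorescence against a standard curve: Triton-lysed samples give total, TE-only samples give free cargo; encapsulation efficiency from their ratio.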
# mouse organs = assay: In vivo activity screening in mice: organ mean total flux (p/s) of luciferase activity after injection of F2 LNP pools (Table 6, FIG. 7A-7C); details: luciferase mRNA
# In short: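 Luciferase output per organ is reported as mean total flux (p/s) from IVIS regions of interest. Organs were collected from perfused C57BL/6J mice and imaged 10-15 min after s.c. D-luciferin, 4-6 h after i.v. dosing. Dosing was 0.25-3 mg/kg luciferase mRNA in F2 LNP pools.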
# [3] = LNP compositions for Formulation F2 Study
# [4] = LNP compositions for in vivo mouse study, four formulations (F1-F4) of the lipid compound pooled, or pools of four compounds (sixteen compositions)
# [5] = LNP compositions for in vivo mouse study, four formulations (F1-F4) pooled, or pools of four compounds
structure (smiles),measurement,setting,value
"CCCCC/C=C\CCOC(=O)CCCCCCC(=O)OCC(COC(=O)CCCCCCC(=O)OCC/C=C\CCCCC)(COC(=O)CCCCCCC(=O)OCC/C=C\CCCCC)COC(=O)CCC(CCCCCC)OC(=O)NCCN1CCCC1 (centres unmarked) [Compound 10, O8-[2,2-bis[[8-[(Z)-non-3-enoxy]-8-oxo-octanoyl]oxymethyl]-3-[4-(2-pyrrolidin-1-ylethylcarbamoyloxy)decanoyloxy]propyl]O1-[(Z)-non-3-enyl]octanedioate]",PDI,[1]; [3],0.139
same,Particle Size (nm),[1]; [3],125.5 nm
same,Particle Size (nm),[1]; [4],91.7 nm
same,PDI,[1]; [5],0.176
same,PDI N/P:3,"[1]; Formulation F1, N/P 3",0.208
same,Size (nm) N/P:3,"[1]; Formulation F1, N/P 3",86 ± 4 nm
same,PDI N/P:6,"[1]; Formulation F1, N/P 6",0.09
same,Size (nm) N/P:6,"[1]; Formulation F1, N/P 6",78 ± 3 nm
same,PDI N/P:3,"[1]; Formulation F2, N/P 3",0.097
same,Size (nm) N/P:3,"[1]; Formulation F2, N/P 3",102 ± 3 nm
same,PDI N/P:6,"[1]; Formulation F2, N/P 6",0.122
same,Size (nm) N/P:6,"[1]; Formulation F2, N/P 6",96 ± 0 nm
same,PDI N/P:3,"[1]; Formulation F3, N/P 3",0.081
same,Size (nm) N/P:3,"[1]; Formulation F3, N/P 3",106 ± 2 nm
same,PDI N/P:6,"[1]; Formulation F3, N/P 6",0.092
same,Size (nm) N/P:6,"[1]; Formulation F3, N/P 6",100 ± 3 nm
same,PDI N/P:3,"[1]; Formulation F4, N/P 3",0.278
same,Size (nm) N/P:3,"[1]; Formulation F4, N/P 3",92 ± 4 nm
same,PDI N/P:6,"[1]; Formulation F4, N/P 6",0.227
same,Size (nm) N/P:6,"[1]; Formulation F4, N/P 6",78 ± 1 nm
same,EE %,[2]; [3],98%
same,EE %,[2]; [5],99%
same,mRNA Content,[2]; [5],101.7 µg/mL
same,EE (%) N/P:3,"[2]; Formulation F1, N/P 3",98%
same,EE (%) N/P:6,"[2]; Formulation F1, N/P 6",100%
same,EE (%) N/P:3,"[2]; Formulation F2, N/P 3",98%
same,EE (%) N/P:6,"[2]; Formulation F2, N/P 6",100%
same,EE (%) N/P:3,"[2]; Formulation F3, N/P 3",96%
same,EE (%) N/P:6,"[2]; Formulation F3, N/P 6",100%
same,EE (%) N/P:3,"[2]; Formulation F4, N/P 3",98%
same,EE (%) N/P:6,"[2]; Formulation F4, N/P 6",100%
same,Organ Mean Total Flux Femur,"mouse organs; Mouse 1, dose 0.3 mg/kg",7.1 p/s (×10^6)
same,Organ Mean Total Flux Heart,"mouse organs; Mouse 1, dose 0.3 mg/kg",4.3 p/s (×10^6)
same,Organ Mean Total Flux Kidney,"mouse organs; Mouse 1, dose 0.3 mg/kg",81.1 p/s (×10^6)
same,Organ Mean Total Flux Liver,"mouse organs; Mouse 1, dose 0.3 mg/kg",12560 p/s (×10^6)
same,Organ Mean Total Flux Lung,"mouse organs; Mouse 1, dose 0.3 mg/kg",41.5 p/s (×10^6)
same,Organ Mean Total Flux Muscle,"mouse organs; Mouse 1, dose 0.3 mg/kg",6.2 p/s (×10^6)
same,Organ Mean Total Flux Pancreas,"mouse organs; Mouse 1, dose 0.3 mg/kg",2.7 p/s (×10^6)
same,Organ Mean Total Flux Spleen,"mouse organs; Mouse 1, dose 0.3 mg/kg",12.3 p/s (×10^6)
same,Organ Mean Total Flux Femur,"mouse organs; Mouse 14, dose 0.5 mg/kg",6.5 p/s (×10^6)
same,Organ Mean Total Flux Heart,"mouse organs; Mouse 14, dose 0.5 mg/kg",2.8 p/s (×10^6)
same,Organ Mean Total Flux Kidney,"mouse organs; Mouse 14, dose 0.5 mg/kg",3.7 p/s (×10^6)
same,Organ Mean Total Flux Liver,"mouse organs; Mouse 14, dose 0.5 mg/kg",1175 p/s (×10^6)
same,Organ Mean Total Flux Lung,"mouse organs; Mouse 14, dose 0.5 mg/kg",16.2 p/s (×10^6)
same,Organ Mean Total Flux Muscle,"mouse organs; Mouse 14, dose 0.5 mg/kg",15.1 p/s (×10^6)
same,Organ Mean Total Flux Pancreas,"mouse organs; Mouse 14, dose 0.5 mg/kg",4.0 p/s (×10^6)
same,Organ Mean Total Flux Spleen,"mouse organs; Mouse 14, dose 0.5 mg/kg",10.2 p/s (×10^6)
"CCCCC/C=C\CCOC(=O)CCCCCCC(=O)OCC(COC(=O)CCCCCCC(=O)OCC/C=C\CCCCC)(COC(=O)CCC(CCCCCC)OC(=O)NCCN1CCCC1)COC(=O)CC12CC3CC(CC(C3)C1)C2 (centres unmarked) [Compound 11, O8-[2-[[2-(1-adamantyl)acetyl]oxymethyl]-2-[[8-[(Z)-non-3-enoxy]-8-oxo-octanoyl]oxymethyl]-3-[4-(2-pyrrolidin-1-ylethylcarbamoyloxy)decanoyloxy]propyl]O1-[(Z)-non-3-enyl]octanedioate]",Particle Size (nm),[1]; [4],86 nm
same,PDI,[1]; [5],0.13
same,PDI N/P:6,"[1]; Formulation F1, N/P 6",0.16
same,Size (nm) N/P:6,"[1]; Formulation F1, N/P 6",77 ± 7 nm
same,PDI N/P:6,"[1]; Formulation F2, N/P 6",0.11
same,Size (nm) N/P:6,"[1]; Formulation F2, N/P 6",88 ± 3 nm
same,PDI N/P:6,"[1]; Formulation F3, N/P 6",0.14
same,Size (nm) N/P:6,"[1]; Formulation F3, N/P 6",91 ± 1 nm
same,PDI N/P:6,"[1]; Formulation F4, N/P 6",0.30
same,Size (nm) N/P:6,"[1]; Formulation F4, N/P 6",74 ± 2 nm
same,EE %,[2]; [5],97%
same,mRNA Content,[2]; [5],105 µg/mL
same,EE (%) N/P:6,"[2]; Formulation F1, N/P 6",100%
same,EE (%) N/P:6,"[2]; Formulation F2, N/P 6",100%
same,EE (%) N/P:6,"[2]; Formulation F3, N/P 6",97%
same,EE (%) N/P:6,"[2]; Formulation F4, N/P 6",99%
same,Organ Mean Total Flux Femur,"mouse organs; Mouse 1, dose 0.3 mg/kg",5.3 p/s (×10^6)
same,Organ Mean Total Flux Heart,"mouse organs; Mouse 1, dose 0.3 mg/kg",2.3 p/s (×10^6)
same,Organ Mean Total Flux Kidney,"mouse organs; Mouse 1, dose 0.3 mg/kg",2.4 p/s (×10^6)
same,Organ Mean Total Flux Liver,"mouse organs; Mouse 1, dose 0.3 mg/kg",5140 p/s (×10^6)
same,Organ Mean Total Flux Lung,"mouse organs; Mouse 1, dose 0.3 mg/kg",27.7 p/s (×10^6)
same,Organ Mean Total Flux Muscle,"mouse organs; Mouse 1, dose 0.3 mg/kg",21.8 p/s (×10^6)
same,Organ Mean Total Flux Pancreas,"mouse organs; Mouse 1, dose 0.3 mg/kg",6.0 p/s (×10^6)
same,Organ Mean Total Flux Spleen,"mouse organs; Mouse 1, dose 0.3 mg/kg",32.3 p/s (×10^6)
"CCCCC/C=C\CCOC(=O)CCCCCCC(=O)OCC(COC(=O)CCCCCCC(=O)OCC/C=C\CCCCC)(COC(=O)CCC(CCCCCC)OC(=O)NCCN1CCCC1)COC(=O)CCC(OCCCCCCCC)OCCCCCCCC (centres unmarked) [Compound 12, O8-[2-(4,4-dioctoxybutanoyloxymethyl)-2-[[8-[(Z)-non-3-enoxy]-8-oxo-octanoyl]oxymethyl]-3-[4-(2-pyrrolidin-1-ylethylcarbamoyloxy)decanoyloxy]propyl]O1-[(Z)-non-3-enyl]octanedioate]",Particle Size (nm),[1]; [4],83.7 nm
same,PDI,[1]; [5],0.119
same,PDI N/P:6,"[1]; Formulation F1, N/P 6",0.16
same,Size (nm) N/P:6,"[1]; Formulation F1, N/P 6",81 ± 9 nm
same,PDI N/P:6,"[1]; Formulation F2, N/P 6",0.07
same,Size (nm) N/P:6,"[1]; Formulation F2, N/P 6",84 ± 5 nm
same,PDI N/P:6,"[1]; Formulation F3, N/P 6",0.04
same,Size (nm) N/P:6,"[1]; Formulation F3, N/P 6",93 ± 1 nm
same,PDI N/P:6,"[1]; Formulation F4, N/P 6",0.09
same,Size (nm) N/P:6,"[1]; Formulation F4, N/P 6",63 ± 0 nm
same,EE %,[2]; [5],97%
same,mRNA Content,[2]; [5],91 µg/mL
same,EE (%) N/P:6,"[2]; Formulation F1, N/P 6",98%
same,EE (%) N/P:6,"[2]; Formulation F2, N/P 6",98%
same,EE (%) N/P:6,"[2]; Formulation F3, N/P 6",97%
same,EE (%) N/P:6,"[2]; Formulation F4, N/P 6",98%
same,Organ Mean Total Flux Femur,"mouse organs; Mouse 1, dose 0.3 mg/kg",1.3 p/s (×10^6)
same,Organ Mean Total Flux Heart,"mouse organs; Mouse 1, dose 0.3 mg/kg",0.1 p/s (×10^6)
same,Organ Mean Total Flux Kidney,"mouse organs; Mouse 1, dose 0.3 mg/kg",0.2 p/s (×10^6)
same,Organ Mean Total Flux Liver,"mouse organs; Mouse 1, dose 0.3 mg/kg",61.8 p/s (×10^6)
same,Organ Mean Total Flux Lung,"mouse organs; Mouse 1, dose 0.3 mg/kg",0.7 p/s (×10^6)
same,Organ Mean Total Flux Muscle,"mouse organs; Mouse 1, dose 0.3 mg/kg",2.7 p/s (×10^6)
same,Organ Mean Total Flux Pancreas,"mouse organs; Mouse 1, dose 0.3 mg/kg",0.2 p/s (×10^6)
same,Organ Mean Total Flux Spleen,"mouse organs; Mouse 1, dose 0.3 mg/kg",0.7 p/s (×10^6)
